Laboratory results from article PMC10714400, “Antimicrobial Peptide–Peptoid Hybrids with and without Membrane Disruption” (ACS Infectious Diseases, 2023).

Tests used:
[1] = Circular dichroism, α-helical content; type: physicochemical; details: 0.1 mg/mL; for CD %α with 5 mM DPC: 10 mM phosphate buffer pH 7.4, 5 mM DPC; for CD %α with 20% TFE: 10 mM phosphate buffer pH 7.4, 20% TFE
B. cenocepacia = details: 4 h, pH 8.5
Description: (§1) Antimicrobial activity was assayed for all the peptide–peptoids against P. aeruginosa PAO1, K. pneumoniae NCTC418, E. coli W3110, A. baumannii ATCC 19606, methicillin-resistant S. aureus COL (MRSA), and for selected peptides on P. aeruginosa PA14 and the polymyxin-B-resistant derivatives PA14 4.13, PA14 4.18, PA14 2P4, as well as the clinical isolates ZEM-1A and ZEM9A, K. pneumoniae OXA-48, S. aureus Newman, Enterobacter cloacae, Stenotrophomonas maltophilia, Burkholderia cenocepacia, and Staphylococus epidermidis. To determine the Minimal Inhibitory Concentration (MIC), the Broth Microdilution method was used.[72] A colony of bacteria was picked and grown in LB medium overnight at 37 °C.
(§2) To each well was finally added 4 μL of the diluted bacterial suspension (see above), corresponding to approximately 5 × 10^5 CFU. For each test, two columns of the plate were kept for sterility control (medium only), growth control (medium with bacterial inoculum, no compound). The positive control, Polymyxin B (starting with a concentration of 16 μg/mL) in MH medium with bacterial inocula, was introduced in the two lines of the plate. […] Next, 15 μL of 3-(4,5-dimethylthiazol-2-yl)-2,5-diphenyltetrazolium bromide (MTT)[73] (1 mg/mL in sterilized MilliQ deionized water) were added to each well, and the plates were incubated for 20–30 min at room temperature. The minimal inhibitory concentration (MIC) was defined as the lowest concentration of the compound that inhibits the visible growth of the tested bacteria (yellow) with the unaided eye.

S. aureus Newman = details: Table S3; […] MH at pH 8.5
Description: as §1, §2

S. epidermis = details: Table S3; […] MH at pH 8.5
Description: as §1, §2

S. maltophilia = details: Table S3; […] MH at pH 8.5
Description: as §1, §2

P. aeruginosa PA14 = details: Table S3; […] MH at pH 8.5, 16-20 hours at 37 °C
Description: as §1, §2

P. aeruginosa PAO1 [2] = test: Bacterial count after treatment, before TEM sample preparation; type: cell-based, Pseudomonas aeruginosa; details: P. aeruginosa PAO1, […] MH pH 8.5, 10x MIC
Description: (§3) Just before the samples were further prepared for the microscopy, surviving bacteria were quantified by plating 10-fold dilutions of samples in sterilized normal saline (NaCl 0.9%) on LB agar plates. […] The assay was performed in triplicate. Each bacteria sample was centrifuged at 12,000 rpm for 3 min, and the supernatant was discarded. The samples were then further processed and imaged using our previously described protocol.[64]
8. Transmission electron microscopy (TEM)
Table S4: Bacterial counts, 2 hours after treatment, before TEM sample preparation. Data represents triplicates.
Bacteria count after treatment at 10x MIC and 2 h of incubation at 37 °C
Control (non-treated cells) 1 × 10^8 CFU (100)

E. coli W3110 = test system: E. coli W3110
Description: as §1
(§4) To each well was finally added 4 μL of the diluted bacterial suspension (see above), corresponding to approximately 5 × 10^5 CFU. For each test, two columns of the plate were kept for sterility control (medium only), growth control (medium with bacterial inoculum, no compound). The positive control, Polymyxin B (starting with a concentration of 16 μg/mL) in MH medium with bacterial inocula, was introduced in the two lines of the plate. The plates were incubated at 37 °C for ca. 18 h under static conditions. Next, 15 μL of 3-(4,5-dimethylthiazol-2-yl)-2,5-diphenyltetrazolium bromide (MTT)[73] (1 mg/mL in sterilized MilliQ deionized water) were added to each well, and the plates were incubated for 20–30 min at room temperature. The minimal inhibitory concentration (MIC) was defined as the lowest concentration of the compound that inhibits the visible growth of the tested bacteria (yellow) with the unaided eye.

P. aeruginosa PAO1 [3] = test system: P. aeruginosa PAO1
Description: as §1, §4

E. cloacae = details: Table S3; […] MH at pH 8.5
Description: as §1, §4

PA14 4.18 (pmrB) = details: diluted MH ([…] MH) at pH 8.5 (Table 2 footnote b)
Description: as §1, §4

K. pneumoniae NCTC418 = test system: K. pneumoniae NCTC418
Description: as §1, §4

A. baumannii ATCC19606 = test system: A. baumannii ATCC19606
Description: as §1, §4

[4] = test system: ZEM9A (clinical MDR P. aeruginosa isolate); details: Table S3; […] MH at pH 8.5
Description: as §1, §4

PA14 4.13 (phoQ) = details: diluted MH ([…] MH) at pH 8.5 (Table 2 footnote b)
Description: as §1, §4

[5] = test system: ZEM-1A (clinical MDR P. aeruginosa isolate); details: Table S3; […] MH at pH 8.5
Description: as §1, §4

S. aureus COL (MRSA) = details: Table S2
Description: as §1, §4

K. pneumoniae OXA-48 = details: Table S3; […] MH at pH 8.5
Description: as §1, §4

PA14 2P4 (pmrB) = details: diluted MH ([…] MH) at pH 8.5 (Table 2 footnote b)
Description: as §1, §4

P. aeruginosa PAO1 [6] = test: Transmission electron microscopy (TEM); type: cell-based, Pseudomonas aeruginosa; details: P. aeruginosa PAO1, 10 × MIC, […] MH at pH 8.5, 2 h at 37 °C
Description: Scale bars are 500 nm and 1 μm. Red arrows: membrane perturbations. Blue arrows: intracellular aggregation. Yellow arrows: empty area within the cell.
as §3

Substance: H-VDKPPYLPRPRPPRRIYNR-NH2 [Onc, reference compound]
- CD %α with 5 mM DPC ([1]; DichroWeb, Contin-LL): 20%
- CD %α with 20% TFE ([1]; DichroWeb, Contin-LL): 23%
- CD %α with 5 mM DPC ([1]; Table S2): 20%
- CD %α with 20% TFE ([1]; Table S2): 23%
- MIC B. cenocepacia (B. cenocepacia): 32 µg/mL
- MIC S. aureus Newman (S. aureus Newman): 1 µg/mL
- MIC S. epidermis (S. epidermis): 4 µg/mL
- MIC S. maltophilia (S. maltophilia): > 32 µg/mL
- MIC P. aeruginosa PA14 (P. aeruginosa PA14): 2 µg/mL
- Bacteria count after treatment at 10x MIC and 2 h of incubation at 37 °C (% of control) (P. aeruginosa PAO1 [2]): 0.01 % of control
- Antibacterial activity as a function of NaCl concentration (E. coli W3110; E. coli W3110, […] MH at pH 8.5, up to 300 mM NaCl): strongly reduced
- MIC E. coli W3110 […] 7.4 (E. coli W3110; Table S2, […] MH, pH 7.4): 1 µg/mL
- MIC E. coli W3110 […] 8.5 (E. coli W3110; Table S2, […] MH, pH 8.5): 1 µg/mL
- MIC E. coli W3110 Full MH 7.4 (E. coli W3110; Table S2, full MH, pH 7.4): 4 µg/mL
- MIC E. coli W3110 Full MH 8.5 (E. coli W3110; Table S2, full MH, pH 8.5): 1 µg/mL
- Activity increase in dilute medium (E. coli W3110; […] MH vs full MH, E. coli): 4 fold
- Antibacterial activity as a function of NaCl concentration (P. aeruginosa PAO1 [3]; P. aeruginosa PAO1, […] MH at pH 8.5, up to 300 mM NaCl): strongly reduced
- MIC P. aeruginosa PAO1 […] 7.4 (P. aeruginosa PAO1 [3]; Table S2, […] MH, pH 7.4): 32 µg/mL
- MIC P. aeruginosa PAO1 Full MH 7.4 (P. aeruginosa PAO1 [3]; Table S2, full MH, pH 7.4): > 32 µg/mL
- MIC P. aeruginosa PAO1 Full MH 8.5 (P. aeruginosa PAO1 [3]; Table S2, full MH, pH 8.5): > 32 µg/mL
- MIC E. cloacae (E. cloacae): 2 µg/mL
- MIC PA14 4.18 (pmrB) (PA14 4.18 (pmrB)): 2 µg/mL
- MIC K. pneumoniae NCTC418 […] 7.4 (K. pneumoniae NCTC418; Table S2, […] MH, pH 7.4): 1 µg/mL
- MIC K. pneumoniae NCTC418 […] 8.5 (K. pneumoniae NCTC418; Table S2, […] MH, pH 8.5): 1 µg/mL
- MIC K. pneumoniae NCTC418 Full MH 7.4 (K. pneumoniae NCTC418; Table S2, full MH, pH 7.4): 4 µg/mL
- MIC K. pneumoniae NCTC418 Full MH 8.5 (K. pneumoniae NCTC418; Table S2, full MH, pH 8.5): 4 µg/mL
- Activity increase in dilute medium (K. pneumoniae NCTC418; […] MH vs full MH, K. pneumoniae): 4 fold
- MIC A. baumannii ATCC19606 Full MH 8.5 (A. baumannii ATCC19606; ATCC19606, 4 h, pH 8.5): 8 µg/mL
- MIC A. baumannii ATCC19606 […] 7.4 (A. baumannii ATCC19606; Table S2, […] MH, pH 7.4): 4 µg/mL
- MIC A. baumannii ATCC19606 […] 8.5 (A. baumannii ATCC19606; Table S2, […] MH, pH 8.5): 4 µg/mL
- MIC A. baumannii ATCC19606 Full MH 7.4 (A. baumannii ATCC19606; Table S2, full MH, pH 7.4): 32 µg/mL
- Activity increase in dilute medium (A. baumannii ATCC19606; […] MH vs full MH, A. baumannii): 4 fold
- MIC P. aeruginosa ZEM9A [4]: 16 µg/mL
- MIC PA14 4.13 (phoQ) (PA14 4.13 (phoQ)): 2 µg/mL
- MIC P. aeruginosa ZEM-1A [5]: 2 µg/mL
- MIC S. aureus COL (MRSA) […] 7.4 (S. aureus COL (MRSA); […] MH, pH 7.4): 32 µg/mL
- MIC S. aureus COL (MRSA) Full MH 7.4 (S. aureus COL (MRSA); full MH, pH 7.4): > 32 µg/mL
- MIC S. aureus COL (MRSA) Full MH 8.5 (S. aureus COL (MRSA); full MH, pH 8.5): > 32 µg/mL
- MIC K. pneumoniae OXA-48 (K. pneumoniae OXA-48): 1 µg/mL
- MIC PA14 2P4 (pmrB) (PA14 2P4 (pmrB)): 2 µg/mL
- TEM micrographs, changes in treated bacteria (P. aeruginosa PAO1 [6]): aggregation of intracellular components
